One data set deals with T1, ACE (Mus musculus, UniProt P09470).
T1 sequence (P09470 35-1312): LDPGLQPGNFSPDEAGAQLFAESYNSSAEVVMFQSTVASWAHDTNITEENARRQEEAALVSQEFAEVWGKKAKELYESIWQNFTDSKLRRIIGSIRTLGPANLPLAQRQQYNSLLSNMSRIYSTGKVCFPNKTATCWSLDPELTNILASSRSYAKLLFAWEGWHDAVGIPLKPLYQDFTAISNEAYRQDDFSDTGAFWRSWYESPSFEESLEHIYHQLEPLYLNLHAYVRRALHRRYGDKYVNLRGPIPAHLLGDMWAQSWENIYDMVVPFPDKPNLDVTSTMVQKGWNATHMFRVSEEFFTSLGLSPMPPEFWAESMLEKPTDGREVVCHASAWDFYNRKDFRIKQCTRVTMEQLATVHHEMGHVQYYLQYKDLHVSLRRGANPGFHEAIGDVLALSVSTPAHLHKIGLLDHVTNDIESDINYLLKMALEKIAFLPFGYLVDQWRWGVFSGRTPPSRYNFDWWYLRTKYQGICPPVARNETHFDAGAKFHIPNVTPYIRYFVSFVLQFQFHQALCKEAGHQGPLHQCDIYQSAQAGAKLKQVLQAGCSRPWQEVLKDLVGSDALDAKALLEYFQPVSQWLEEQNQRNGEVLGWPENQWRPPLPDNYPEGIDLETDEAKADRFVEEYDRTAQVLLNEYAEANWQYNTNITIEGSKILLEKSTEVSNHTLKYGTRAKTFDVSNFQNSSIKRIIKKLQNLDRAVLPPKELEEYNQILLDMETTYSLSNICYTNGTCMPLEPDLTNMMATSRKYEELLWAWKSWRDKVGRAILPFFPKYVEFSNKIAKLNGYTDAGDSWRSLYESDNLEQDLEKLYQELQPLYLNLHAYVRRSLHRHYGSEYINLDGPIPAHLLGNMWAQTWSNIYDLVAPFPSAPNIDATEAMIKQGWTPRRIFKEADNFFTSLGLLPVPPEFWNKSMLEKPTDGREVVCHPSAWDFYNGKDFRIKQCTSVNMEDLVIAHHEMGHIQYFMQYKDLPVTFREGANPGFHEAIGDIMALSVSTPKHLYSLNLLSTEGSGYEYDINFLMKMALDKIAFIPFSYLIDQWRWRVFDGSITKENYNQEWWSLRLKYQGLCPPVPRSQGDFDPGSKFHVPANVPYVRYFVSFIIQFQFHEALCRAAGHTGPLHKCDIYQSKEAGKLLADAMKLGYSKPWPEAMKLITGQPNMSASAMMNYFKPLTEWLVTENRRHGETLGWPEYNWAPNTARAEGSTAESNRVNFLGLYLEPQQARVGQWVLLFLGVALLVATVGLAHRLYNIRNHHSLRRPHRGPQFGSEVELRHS
In words: In vitro ACE cleavage of synthetic peptides, MALDI-TOF MS. Conditions: 2 pmol/μL peptide, WT ACE or NKO ACE, 30 min, 37 °C. The format is biochemical.

Another data set concerns WT ACE. Briefly: 100 μL of HEPES buffer. Conditions: mouse (ACE purified from mouse lung and kidney), 37 °C, up to 30 min.

Experimental findings from article PMC6693507 (Analytical chemistry, 2019) are described below.

With “FPDGTKEMD [serine-protease inhibitor A3K (22–30)]”, on ACE, the “cleavage products detectable by MALDI-MS” value is reported as “not detectable”.
Take FPRSPL: in the data set with WT ACE, the not cleaved entry is reported as “not further cleaved by ACE”.
Consider “FSSLMNLEEKPAPAA [apolipoprotein A-II (87–101)]”, for which, on ACE, the “cleavage products detectable by MALDI-MS” value is reported as “not detectable”.
With WGTGSPRPG, the not cleaved entry with WT ACE is recorded as “not further cleaved by ACE”.
